# Measurements reported in PubChem BioAssay AID2060617 (Molecular Pharmacology Branch, DTP, NCI, 2025).
# Tested on: 485368-065-R4-J2-PDC spheroids with HUVEC/MSC, viability
# Assay: Anticancer human tumor 485368-065-R4-J2-PDC patient-derived pancreatic carcinoma cell line growth inhibition [CLK]
# Settings: for IC50: curve of first compound; for viability, T/C: stronger effect = lower value
# Procedure, shortened: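 Patient-derived tumor cells grown as complex spheroids with HUVEC endothelial cells and mesenchymal stem cells, treated with drug combinations. Concentrations descend in half-log steps from near clinical Cmax, or from 10 microM if Cmax unknown.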
# [1] = second compound 0.0316 µM, first compound 0.0316 µM
# [2] = second compound 0.0316 µM, first compound 0.1 µM
# [3] = second compound 0.0316 µM, first compound 0.316 µM
# [4] = second compound 0.0316 µM, first compound 1 µM
# [5] = second compound 0.0316 µM, first compound 3.16 µM
# [6] = second compound 0.0316 µM, first compound 10 µM
# [7] = second compound 0.1 µM, first compound 0.0316 µM
# [8] = second compound 0.1 µM, first compound 0.1 µM
# [9] = second compound 0.1 µM, first compound 0.316 µM
# [10] = second compound 0.1 µM, first compound 1 µM
# [11] = second compound 0.1 µM, first compound 3.16 µM
# [12] = second compound 0.1 µM, first compound 10 µM
# [13] = second compound 0.316 µM, first compound 0.0316 µM
# [14] = second compound 0.316 µM, first compound 0.1 µM
# [15] = second compound 0.316 µM, first compound 0.316 µM
# [16] = second compound 0.316 µM, first compound 1 µM
# [17] = second compound 0.316 µM, first compound 3.16 µM
# [18] = second compound 0.316 µM, first compound 10 µM
# [19] = second compound 1 µM, first compound 0.0316 µM
# [20] = second compound 1 µM, first compound 0.1 µM
# [21] = second compound 1 µM, first compound 0.316 µM
# [22] = second compound 1 µM, first compound 1 µM
# [23] = second compound 1 µM, first compound 3.16 µM
# [24] = second compound 1 µM, first compound 10 µM
# [25] = second compound 3.16 µM, first compound 0.0316 µM
# [26] = second compound 3.16 µM, first compound 0.1 µM
# [27] = second compound 3.16 µM, first compound 0.316 µM
# [28] = second compound 3.16 µM, first compound 1 µM
# [29] = second compound 3.16 µM, first compound 3.16 µM
# [30] = second compound 3.16 µM, first compound 10 µM
# [31] = second compound 10 µM, first compound 0.0316 µM
# [32] = second compound 10 µM, first compound 0.1 µM
# [33] = second compound 10 µM, first compound 0.316 µM
# [34] = second compound 10 µM, first compound 1 µM
# [35] = second compound 10 µM, first compound 3.16 µM
# [36] = second compound 10 µM, first compound 10 µM
# 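Further: spheroids exposed to compounds for seven days.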
# 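Wherever viability, T/C is given: 100% = DMSO vehicle control wells.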
compound,measurement,setting,value
COc1ccc([C@@H](O)c2cc(-c3ncnc4cc(N5CCOCC5)ccc34)c(F)cc2Cl)nn1 + CNC(=O)c1ccc(Nc2nc(OC3CCCC3)c3c(-c4ccc5nc(C)oc5c4)c[nH]c3n2)c(OC)c1,IC50,second compound 0.0316 µM,> 10000 nM
same,IC50,second compound 0.1 µM,> 10000 nM
same,IC50,second compound 0.316 µM,> 10000 nM
same,IC50,second compound 1 µM,> 10000 nM
same,IC50,second compound 3.16 µM,> 10000 nM
same,IC50,second compound 10 µM,> 10000 nM
same,"viability, T/C",[1],84.1%
same,"viability, T/C",[2],96.7%
same,"viability, T/C",[3],96.1%
same,"viability, T/C",[4],103%
same,"viability, T/C",[5],122%
same,"viability, T/C",[6],83.7%
same,"viability, T/C",[7],86.5%
same,"viability, T/C",[8],99.7%
same,"viability, T/C",[9],95.1%
same,"viability, T/C",[10],103%
same,"viability, T/C",[11],96.6%
same,"viability, T/C",[12],87.6%
same,"viability, T/C",[13],82.2%
same,"viability, T/C",[14],77.8%
same,"viability, T/C",[15],86.6%
same,"viability, T/C",[16],73.6%
same,"viability, T/C",[17],81.5%
same,"viability, T/C",[18],66.5%
same,"viability, T/C",[19],69.8%
same,"viability, T/C",[20],70.9%
same,"viability, T/C",[21],72.1%
same,"viability, T/C",[22],67.6%
same,"viability, T/C",[23],65.5%
same,"viability, T/C",[24],59.2%
same,"viability, T/C",[25],68.3%
same,"viability, T/C",[26],62.7%
same,"viability, T/C",[27],68.8%
same,"viability, T/C",[28],57%
same,"viability, T/C",[29],54.9%
same,"viability, T/C",[30],51.4%
same,"viability, T/C",[31],63.7%
same,"viability, T/C",[32],70.4%
same,"viability, T/C",[33],65.4%
same,"viability, T/C",[34],57.5%
same,"viability, T/C",[35],54.8%
same,"viability, T/C",[36],50.1%
COc1cccc2c1C(=O)c1c(O)c3c(c(O)c1C2=O)CC(O)(C(=O)CO)CC3OC1CC(N)C(O)C(C)O1 (centres undefined) + CNC(=O)c1ccc(Nc2nc(OC3CCCC3)c3c(-c4ccc5nc(C)oc5c4)c[nH]c3n2)c(OC)c1,IC50,second compound 0.0316 µM,445 nM
same,IC50,second compound 0.1 µM,406 nM
same,IC50,second compound 0.316 µM,270 nM
same,IC50,second compound 1 µM,156 nM
same,IC50,second compound 3.16 µM,136 nM
same,IC50,second compound 10 µM,111 nM
same,"viability, T/C",[1],89.3%
same,"viability, T/C",[2],94.2%
same,"viability, T/C",[3],56.9%
same,"viability, T/C",[4],31.6%
same,"viability, T/C",[5],8.22%
same,"viability, T/C",[6],23.9%
same,"viability, T/C",[7],101%
same,"viability, T/C",[8],100%
same,"viability, T/C",[9],55.9%
same,"viability, T/C",[10],26.9%
same,"viability, T/C",[11],7.71%
same,"viability, T/C",[12],22.3%
same,"viability, T/C",[13],101%
same,"viability, T/C",[14],86.2%
same,"viability, T/C",[15],45%
same,"viability, T/C",[16],18.6%
same,"viability, T/C",[17],6.61%
same,"viability, T/C",[18],25.7%
same,"viability, T/C",[19],91%
same,"viability, T/C",[20],66%
same,"viability, T/C",[21],25.1%
same,"viability, T/C",[22],11.3%
same,"viability, T/C",[23],6.11%
same,"viability, T/C",[24],23.9%
same,"viability, T/C",[25],76.6%
same,"viability, T/C",[26],61.7%
same,"viability, T/C",[27],17.9%
same,"viability, T/C",[28],8.87%
same,"viability, T/C",[29],6.5%
same,"viability, T/C",[30],15.5%
same,"viability, T/C",[31],76.6%
same,"viability, T/C",[32],53.4%
same,"viability, T/C",[33],17.2%
same,"viability, T/C",[34],7.28%
same,"viability, T/C",[35],7.64%
same,"viability, T/C",[36],17.4%
